Test results as given in US20150056205A1, “STEROID SPARING AGENTS AND METHODS OF USING SAME” (BIOGEN IDEC MA INC., priority 2004, published 2015).

Experiments:
[1] = test system: pregnant cynomolgus monkeys; experiment: preliminary reproductive toxicity study; format: in vivo; details: 30 mg/kg group, repeated intravenous doses, Day 31 of gestation after five doses
Procedure: In mice, there is evidence that α4 integrin and VCAM-1 play a role in placental and cardiac development, and they may also play a wider role in fetal development. There is, therefore, a risk of an abortifacient effect or teratogenicity if α4 integrin is blocked by natalizumab. A preliminary reproductive toxicity study exposed groups of five pregnant cynomolgus monkeys to repeated intravenous doses of 0.06, 0.3, or 30 mg/kg natalizumab. One of five pregnant females in the 30 mg/kg group aborted at Day 31 of gestation after receiving five doses of natalizumab. Because the overall rate of abortion fell within the rate of spontaneous abortion in this species, the event was not believed to be related to natalizumab. An ongoing follow-up reproductive toxicity study has exposed groups of 10 to 15 pregnant cynomolgus monkeys to repeated intravenous doses of 3, 10, or 30 mg/kg. Embryo deaths have occurred at similar rates in all treatment groups: two in the control, one in the 3 mg/kg, two in the 10 mg/kg and two in the 30 mg/kg groups respectively. As a precaution, women of childbearing potential must utilize effective contraception throughout the duration of the study and for at least 3 months after the last infusion of study drug, and must have a negative pregnancy test at the time of each natalizumab dosing.

[2] = test system: subjects with active ulcerative colitis; experiment: open-label single infusion study in active ulcerative colitis; format: in vivo; details: for mean PTAI score: 9.7 at Week 0
Procedure: Another earlier study was an open-label safety, tolerability, and efficacy study of a single infusion of 3 mg/kg intravenous natalizumab in male and female subjects with active ulcerative colitis.

guinea pig EAE = experiment: guinea pig Experimental Allergic Encephalitis (EAE) model; format: in vivo
Procedure: The initial dose of natalizumab selected for clinical evaluation was based on non-clinical studies in the guinea pig Experimental Allergic Encephalitis (EAE) model. […] A single dose of 3 mg/kg appeared to provide serum concentrations of natalizumab associated with α4 integrin receptor blockade for up to approximately 3 weeks, and 6 mg/kg for about 6 weeks.

[3] = test system: subjects with Crohn's disease; experiment: Phase III maintenance of response and remission study in Crohn's disease (Example 9, second study); format: in vivo, human
Procedure: A double-blind, placebo-controlled study of the efficacy, safety, and tolerability of intravenous Tysabri (natalizumab, 300 mg monthly) in maintaining clinical response and remission in patients with Crohn's Disease (CD) was performed. The objectives were to compare the ability of natalizumab versus placebo to maintain a clinical response in subjects with CD, to compare the ability of natalizumab versus placebo to maintain a clinical remission in subjects with CD, to compare the effects of natalizumab versus placebo on quality of life as measured by the Inflammatory Bowel Disease Questionnaire (IBDQ), and to compare the ability of natalizumab versus placebo to allow subjects to achieve withdrawal of oral steroids.
A Phase III, international, multicenter, randomized, double-blind, placebo-controlled, parallel-group study of subjects with previously active Crohn's disease (CD) (defined as moderately to severely active, CDAI≧220, <450) who have responded to treatment at Week 10 and maintained that response out to Week 12 in a first study (defined as a ≧70 point decrease in baseline CDAI) and whose disease is mildly active (defined as a CDAI score of <220) was undertaken.
Within this group there was a sub-population who had achieved remission (defined as a CDAI score of <150) at Week 10 of the first study. […] Subjects receiving concomitant medications for their CD were permitted to enroll providing that doses remained stable throughout their participation in the first study. All concomitant medications for CD remained stable for the duration of the 12-month treatment phase (up to Month 15) with the exception of oral steroids which were reduced according to a fixed algorithm). At the time this application was filed, only 9 months of data was available.
Natalizumab was administered 300 mg monthly for 12 infusions. The placebo was administered monthly for 12 infusions. Subjects were stratified according to their disease status (remission versus no remission, i.e., a CDAI<150 or ≧150), concomitant use of oral steroids and concomitant use of immunosuppressants.
Once randomized, subjects received their first infusion. Thereafter, they returned to the clinic on a monthly basis (where 1 month is defined as a 4-week period) for assessment and infusion. Introduction of any new medication for CD or a dose change to an existing concomitant medication for CD (with the exception of oral steroids withdrawn according to the fixed algorithm) […] unless deemed necessary for purposes of rescue intervention. Once rescued, such a subject was considered a treatment failure.
Eligible subjects at Week 10 in the first study were consented and enrolled into the second study, in order to allow subjects taking concomitant oral steroids to begin a steroid taper. Subjects who continued to meet the eligibility criteria at Week 12/Month 3, i.e., in time for their next, monthly infusion, were re-randomized and entered the treatment phase which will last up to 12 months in duration (i.e., up to Month 15). Subjects were male or female, eighteen years of age or older.
All subjects receiving oral steroids were required to undergo a taper immediately upon entry into the second study using the following algorithm. Subjects on doses equivalent to >10 mg of prednisolone will begin their taper at a rate of 5 mg every 7 days until they reach a dose of 10 mg. Subjects on doses equivalent to 10 mg of prednisolone were tapered at a rate of 2.5 mg every 7 days until they are completely withdrawn. Subjects taking budesonide were tapered at a rate of 3 mg every 3 weeks.
The ability of natalizumab to maintain mildly active disease (defined as a CDAI score of <220 and no use of rescue intervention) and remission (defined as a CDAI score of <150 and no use of rescue intervention) in subjects with CD was assessed. […]

For natalizumab, the “pregnant females that aborted” value [1] was “One of five”, the “mean PTAI score” value ([2]; 1 week post-treatment) was 6.9 and the “subjects with good clinical response (PTAI score ≦5)” value ([2]; 2 and 4 weeks after single 3 mg/kg infusion, ten subjects) was 50%. For the same substance, the “mean PTAI score” value ([2]; 2 weeks post-treatment) was 5.7, the “mean PTAI score” value ([2]; 4 weeks post-treatment) was 4.9 and the “subjects who received no rescue medication” value ([2]; between Weeks 0 and 4) was “Seventy percent”. The “adverse events considered related to study drug” value ([2]; of the 30 adverse events reported) was 3, the “subjects reporting a serious adverse event” value ([2]; ten subjects, single 3 mg/kg) was “Three” and the “signs and symptoms of EAE” value (guinea pig EAE; dose of 3 mg/kg) was “significant delay in onset and a reversal of the signs and symptoms of EAE”. For the same substance, the “signs and symptoms of EAE” value (guinea pig EAE; lower doses than 3 mg/kg) was “not effective”, the “patients of the remission population who maintained a response (remission)” value ([3]; after 9 months, natalizumab remission population at three months, placebo 25.8%) was 43.8% and the “patients who maintained a response” value ([3]; after 9 months, natalizumab responder population at three months, placebo 28.8%) was 61.3%. The “Remission and not taking steroids, number (%) of subjects” value ([3]; month 9, of those who took steroids at first study baseline, 300 mg monthly, placebo 17 (22%)) was 31 (46%), the “Not taking steroids, number (%) of subjects” value ([3]; month 9, of those who took steroids at first study baseline, 300 mg monthly, placebo 19 (25%)) was 37 (55%) and the “serious adverse events (SAEs)” value ([3]; placebo 8%) was 7%. The tapering off steroids ([3]; second study) was “enabled subjects to be successfully tapered off steroids”.
